# Data from PMC3327805 (Journal of Molecular Biology, 2012).
# Target: PBPA (penicillin-binding protein A) (Mycobacterium tuberculosis, UniProt P9WKD1)
# Sequence (P9WKD1 34-491): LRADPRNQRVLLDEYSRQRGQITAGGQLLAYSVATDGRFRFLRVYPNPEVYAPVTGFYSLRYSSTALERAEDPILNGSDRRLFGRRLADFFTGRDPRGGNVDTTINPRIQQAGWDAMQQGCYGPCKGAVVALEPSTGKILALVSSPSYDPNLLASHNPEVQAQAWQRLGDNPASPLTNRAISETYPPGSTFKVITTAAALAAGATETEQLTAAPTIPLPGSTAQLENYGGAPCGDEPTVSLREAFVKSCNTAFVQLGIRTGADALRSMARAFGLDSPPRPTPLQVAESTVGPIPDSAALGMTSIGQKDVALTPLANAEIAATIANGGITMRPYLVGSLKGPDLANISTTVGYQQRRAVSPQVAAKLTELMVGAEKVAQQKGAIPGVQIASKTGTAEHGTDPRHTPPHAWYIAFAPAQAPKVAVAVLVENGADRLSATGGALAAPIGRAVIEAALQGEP
compound,measurement,value
C[C@@H](O)[C@H]1C(=O)N2C(C(=O)O)=C(SCCN=CN)C[C@H]12 [Imipenem],Method / Intrinsic fluorescence,"3,980 ± 180 M^-1 sec^-1"
